In the NIST ThermoML archive (doi:10.1016/j.jct.2012.01.022):

Assay: xn = mol fraction of the nth substance listed
Settings: 101 kPa, Liquid; for speed of sound: Sing-around technique in a fixed-path interferometer; for mass density: Vibrating tube method; for viscosity: Capillary tube (Ostwald / Ubbelohde) method

NCCN [ethane-1,2-diamine] + CCCCCCO
Settings	mass density [kg/m3]	speed of sound [m/s]	viscosity [mPa·s]
293.15 K, x1 = 0.0773	824.126	1338.6	–
293.15 K, x1 = 0.1231	827.205	1348.9	–
293.15 K, x1 = 0.1604	829.772	1358.1	–
293.15 K, x1 = 0.1925	831.826	1365.8	–
293.15 K, x1 = 0.2525	835.69	1381	–
293.15 K, x1 = 0.2907	837.925	1390.2	–
293.15 K, x1 = 0.3942	844.247	1417.8	–
293.15 K, x1 = 0.5086	851.229	1450.5	–
293.15 K, x1 = 0.6059	857.577	1482.3	–
293.15 K, x1 = 0.7125	865.791	1522.6	–
293.15 K, x1 = 0.81	874.361	1569	–
293.15 K, x1 = 0.8583	879.425	1596.2	–
293.15 K, x1 = 0.9028	884.825	1623.9	–
293.15 K, x1 = 0.945	890.109	1652.7	–
298.15 K, x1 = 0.0773	820.463	1321.6	4.258
298.15 K, x1 = 0.1213	–	–	4.169
298.15 K, x1 = 0.1231	823.489	1331.9	–
298.15 K, x1 = 0.1604	826.005	1340.9	4.072
298.15 K, x1 = 0.1925	828.015	1348.6	4
298.15 K, x1 = 0.2525	831.807	1363.7	3.832
298.15 K, x1 = 0.2907	833.999	1372.7	3.72
298.15 K, x1 = 0.3942	840.22	1399.9	3.357
298.15 K, x1 = 0.5086	847.107	1432.2	2.926
298.15 K, x1 = 0.6059	853.36	1463.5	2.528
298.15 K, x1 = 0.7125	861.471	1503.1	2.149
298.15 K, x1 = 0.81	869.926	1548.7	1.851
298.15 K, x1 = 0.8583	874.936	1575.4	1.725
298.15 K, x1 = 0.9028	880.277	1602.8	1.619
298.15 K, x1 = 0.945	885.496	1630.9	1.536
303.15 K, x1 = 0.0773	816.783	1304.6	3.578
303.15 K, x1 = 0.1213	819.755	1314.9	3.551
303.15 K, x1 = 0.1604	822.223	1323.9	3.51
303.15 K, x1 = 0.1925	824.193	1331.5	3.452
303.15 K, x1 = 0.2525	827.911	1346.5	3.324
303.15 K, x1 = 0.2907	830.062	1355.4	3.234
303.15 K, x1 = 0.3942	836.182	1382.2	2.91
303.15 K, x1 = 0.5086	842.967	1413.9	2.537
303.15 K, x1 = 0.6059	849.135	1444.7	2.194
303.15 K, x1 = 0.7125	857.138	1483.7	1.88
303.15 K, x1 = 0.81	865.482	1528.5	1.612
303.15 K, x1 = 0.8583	870.432	1554.7	1.506
303.15 K, x1 = 0.9028	875.713	1581.5	1.428
303.15 K, x1 = 0.945	880.874	1609.2	1.336
308.15 K, x1 = 0.0773	813.087	1287.8	3.066
308.15 K, x1 = 0.1213	816.005	1298.2	3.025
308.15 K, x1 = 0.1604	818.427	1307	2.971
308.15 K, x1 = 0.1925	820.356	1314.6	2.923
308.15 K, x1 = 0.2525	824	1329.3	2.814
308.15 K, x1 = 0.2907	826.113	1338.1	2.737
308.15 K, x1 = 0.3942	832.134	1364.6	2.479
308.15 K, x1 = 0.5086	838.821	1395.8	2.174
308.15 K, x1 = 0.6059	844.903	1426.1	1.892
308.15 K, x1 = 0.7125	852.798	1464.4	1.62
308.15 K, x1 = 0.81	861.03	1508.5	1.404
308.15 K, x1 = 0.8583	865.917	1534.1	1.316
308.15 K, x1 = 0.9028	871.143	1560.6	1.241
308.15 K, x1 = 0.945	876.241	1587.7	1.18
313.15 K, x1 = 0.0773	809.362	1271.1	–
313.15 K, x1 = 0.1213	812.228	1281.6	–
313.15 K, x1 = 0.1604	814.602	1290.4	–
313.15 K, x1 = 0.1925	816.496	1297.9	–
313.15 K, x1 = 0.2525	820.069	1312.4	–
313.15 K, x1 = 0.2907	822.144	1321.1	–
313.15 K, x1 = 0.3942	828.065	1347	–
313.15 K, x1 = 0.5086	834.657	1377.9	–
313.15 K, x1 = 0.6059	840.646	1407.5	–
313.15 K, x1 = 0.7125	848.435	1445.3	–
313.15 K, x1 = 0.81	856.554	1488.5	–
313.15 K, x1 = 0.8583	861.384	1513.6	–
313.15 K, x1 = 0.9028	866.55	1539.7	–
313.15 K, x1 = 0.945	871.587	1566.3	–
